Structures can show the parent of a compound that is named as a salt.
Tested on: P. Falciparum NF54
Assay: Plasmodium falciparum in vitro assay ([3H]-hypoxanthine incorporation)
Assay type: cell-based
Settings: Plasmodium falciparum, Erythrocyte, P. Falciparum NF54, erythrocytic stages in human red blood cells, 50% human serum
In short: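 This in vitro antimalarial assay used P. falciparum erythrocytic stages cultured in human erythrocytes and measured [3H]-hypoxanthine incorporation. Radioactivity on the dried filters, placed in plastic foil with 10 mL scintillation fluid, was counted in a Betaplate liquid scintillation counter. Sigmoidal inhibition curves built in Microsoft Excel gave the IC50.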

SMILES | IC50 [nM]
CN(c1ccc(CN(C(=O)/C=C/c2ccc(C(F)(F)F)cc2)C2CCN(C3CCCC3)CC2)cc1)c1cccnc1 [Example 96, (E)-N-(1-Cyclopentyl-piperidin-4-yl)-N-[4-(methyl-pyridin-3-yl-amino)-benzyl]-3-(4-trifluoromethyl-phenyl)-acrylamide] | 351
O=C(/C=C/c1ccc(C(F)(F)F)cc1)N(Cc1ccc(Nc2ccnc3cc(Cl)ccc23)cc1)C1CCN(C2CCCC2)CC1 [Example 97, (E)-N-[4-(7-Chloro-quinolin-4-ylamino)-benzyl]-N-(1-cyclopentyl-piperidin-4-yl)-3-(4-trifluoromethyl-phenyl)-acrylamide] | 120
Cc1ccc(Nc2ccc(CN(C(=O)/C=C/c3ccc(C(F)(F)F)cc3)C3CCN(C4CCCC4)CC3)cc2)nc1 [Example 98, (E)-N-(1-Cyclopentyl-piperidin-4-yl)-N-[4-(5-methyl-pyridin-2-ylamino)-benzyl]-3-(4-trifluoromethyl-phenyl)-acrylamide] | 370
CN(c1ccncc1)c1ccc(CN(C(=O)/C=C/c2ccc(C(F)(F)F)cc2)C2CN(C3CCCC3)C2)cc1 [Example 102, (E)-N-(1-Cyclopentyl-azetidin-3-yl)-N-[4-(methyl-pyridin-4-yl-amino)-benzyl]-3-(4-trifluoromethyl-phenyl)-acrylamide] | 81
CN1CCC(Nc2ccc(CN(C(=O)/C=C/c3ccc(C(F)(F)F)cc3)C3CCN(C4CCCC4)CC3)cn2)CC1 [Example 105, (E)-N-(1-Cyclopentyl-piperidin-4-yl)-N-[6-(1-methyl-piperidin-4-ylamino)-pyridin-3-ylmethyl]-3-(4-trifluoromethyl-phenyl)-acrylamide] | 152
CN1CCC(N(C)c2ccc(CN(C(=O)/C=C/c3ccc(C(F)(F)F)cc3)C3CCN(C4CCCC4)CC3)cn2)CC1 [Example 106, (E)-N-(1-Cyclopentyl-piperidin-4-yl)-N-{6-[methyl-(1-methyl-piperidin-4-yl)-amino]-pyridin-3-ylmethyl}-3-(4-trifluoromethyl-phenyl)-acrylamide] | 348
O=C(/C=C/c1ccc(C(F)(F)F)cc1)N(Cc1ccc(Nc2ccncn2)nc1)C1CCN(C2CCCC2)CC1 [Example 107, (E)-N-(1-Cyclopentyl-piperidin-4-yl)-N-[6-(pyrimidin-4-ylamino)-pyridin-3-ylmethyl]-3-(4-trifluoromethyl-phenyl)-acrylamide] | 420
Cc1nccc(Nc2ccc(CN(C(=O)/C=C/c3ccc(C(F)(F)F)cc3)C3CCN(C4CCCC4)CC3)cn2)n1 [Example 108, (E)-N-(1-Cyclopentyl-piperidin-4-yl)-N-[6-(2-methyl-pyrimidin-4-ylamino)-pyridin-3-ylmethyl]-3-(4-trifluoromethyl-phenyl)-acrylamide] | 430
Cc1cc(Nc2ccc(CN(C(=O)/C=C/c3ccc(C(F)(F)F)cc3)C3CCN(C4CCCC4)CC3)cn2)ncn1 [Example 109, (E)-N-(1-Cyclopentyl-piperidin-4-yl)-N-[6-(6-methyl-pyrimidin-4-ylamino)-pyridin-3-ylmethyl]-3-(4-trifluoromethyl-phenyl)-acrylamide] | 393
CN1CCC(N2CCC(N(Cc3ccc(Nc4ccncc4)nc3)C(=O)/C=C/c3ccc(C(F)(F)F)cc3)CC2)CC1 [Example 110, (E)-N-(1′-Methyl-[1,4′]bipiperidinyl-4-yl)-N-[6-(pyridin-4-ylamino)-pyridin-3-ylmethyl]-3-(4-trifluoromethyl-phenyl)-acrylamide] | 171
Cc1cc(Nc2ccc(CN(C(=O)/C=C/c3ccc(C(F)(F)F)cc3)C3CCN(C4CCN(C)CC4)CC3)cn2)ccn1 [Example 111, (E)-N-(1′-Methyl-[1,4′]bipiperidinyl-4-yl)-N-[6-(2-methyl-pyridin-4-ylamino)-pyridin-3-ylmethyl]-3-(4-trifluoromethyl-phenyl)-acrylamide] | 165
CN(c1ccncc1)c1ccc(CN(C(=O)/C=C/c2ccc(C(F)(F)F)cc2)[C@H]2CCN(C3CCCC3)C2)cc1 [Example 114, (E)-N-((S)-1-Cyclopentyl-pyrrolidin-3-yl)-N-[4-(methyl-pyridin-4-yl-amino)-benzyl]-3-(4-trifluoromethyl-phenyl)-acrylamide] | 86
CN1CCC(N2CCC(N(Cc3ccc(Nc4ccncc4)cc3)C(=O)/C=C/c3ccc(C(F)(F)F)cc3)CC2)CC1 [Example 115, (E)-N-(1′-Methyl-[1,4′]bipiperidinyl-4-yl)-N-[4-(pyridin-4-ylamino)-benzyl]-3-(4-trifluoromethyl-phenyl)-acrylamide] | 82
Cc1cc(Nc2ccc(CN(C(=O)/C=C/c3ccc(Cl)cc3)C3CCN(C4CCN(C)CC4)CC3)cc2)ccn1 [Example 117, (E)-3-(4-Chloro-phenyl)-N-(1′-methyl-[1,4′]bipiperidinyl-4-yl)-N-[4-(2-methyl-pyridin-4-ylamino)-benzyl]-acrylamide] | 305
CN1CCC(N2CCC(N(Cc3ccc(Nc4ccncc4)cc3)C(=O)/C=C/c3ccc(OC(F)(F)F)cc3)CC2)CC1 [Example 118, (E)-N-(1′-Methyl-[1,4′]bipiperidinyl-4-yl)-N-[4-(pyridin-4-ylamino)-benzyl]-3-(4-trifluoromethoxy-phenyl)-acrylamide] | 83
Cc1cc(Nc2ccc(CN(C(=O)/C=C/c3ccc(C(F)(F)F)cc3)[C@H]3CCCN(C(C)C)C3)cn2)ccn1 [Example 120, (E)-N-((S)-1-Isopropyl-piperidin-3-yl)-N-[6-(2-methyl-pyridin-4-ylamino)-pyridin-3-ylmethyl]-3-(4-trifluoromethyl-phenyl)-acrylamide] | 90
CC(C)N1CCC(N(Cc2cccc(Nc3ccncc3F)c2)C(=O)/C=C/c2ccc(C(F)(F)F)cc2)CC1 [Example 124, (E)-N-[3-(3-Fluoro-pyridin-4-ylamino)-benzyl]-N-(1-isopropyl-piperidin-4-yl)-3-(4-trifluoromethyl-phenyl)-acrylamide formate] | 303
CC(C)N1CCC(N(Cc2cccc(Nc3ccncn3)c2)C(=O)/C=C/c2ccc(C(F)(F)F)cc2)CC1 [Example 125, (E)-N-(1-Isopropyl-piperidin-4-yl)-N-[3-(pyrimidin-4-ylamino)-benzyl]-3-(4-trifluoromethyl-phenyl)-acrylamide formate] | 340

These reach a lower IC50. Values come first.

IC50 [nM] | SMILES
13 | Cc1cc(Nc2ccc(CN(C(=O)/C=C/c3ccc(C(F)(F)F)cc3)C3CCN(C4CCCC4)CC3)cc2)ccn1 [Example 95, (E)-N-(1-Cyclopentyl-piperidin-4-yl)-N-[4-(2-methyl-pyridin-4-ylamino)-benzyl]-3-(4-trifluoromethyl-phenyl)-acrylamide]
21 | COc1ccc2nc(C)cc(Nc3ccc(CN(C(=O)/C=C/c4ccc(C(F)(F)F)cc4)C4CCN(C5CCCC5)CC4)cc3)c2c1 [Example 100, (E)-N-(1-Cyclopentyl-piperidin-4-yl)-N-[4-(6-methoxy-2-methyl-quinolin-4-ylamino)-benzyl]-3-(4-trifluoromethyl-phenyl)-acrylamide]
44 | O=C(/C=C/c1ccc(C(F)(F)F)cc1)N(Cc1ccc(Nc2ccncc2)nc1)C1CCN(C2CCCC2)CC1 [Example 103, (E)-N-(1-Cyclopentyl-piperidin-4-yl)-N-[6-(pyridin-4-ylamino)-pyridin-3-ylmethyl]-3-(4-trifluoromethyl-phenyl)-acrylamide]
60 | CN(c1ccncc1)c1ccc(CN(C(=O)/C=C/c2ccc(C(F)(F)F)cc2)C2CCN(C3CCCC3)CC2)cn1 [Example 104, (E)-N-(1-Cyclopentyl-piperidin-4-yl)-N-[6-(methyl-pyridin-4-yl-amino)-pyridin-3-ylmethyl]-3-(4-trifluoromethyl-phenyl)-acrylamide]
39 | CN1CCC(N2CCC(N(Cc3ccc(N(C)c4ccncc4)nc3)C(=O)/C=C/c3ccc(C(F)(F)F)cc3)CC2)CC1 [Example 112, (E)-N-(1′-Methyl-[1,4′]bipiperidinyl-4-yl)-N-[6-(methyl-pyridin-4-yl-amino)-pyridin-3-ylmethyl]-3-(4-trifluoromethyl-phenyl)-acrylamide]
78 | CN(c1ccncc1)c1ccc(CN(C(=O)/C=C/c2ccc(C(F)(F)F)cc2)[C@@H]2CCN(C3CCCC3)C2)cc1 [Example 113, (E)-N-((R)-1-Cyclopentyl-pyrrolidin-3-yl)-N-[4-(methyl-pyridin-4-yl-amino)-benzyl]-3-(4-trifluoromethyl-phenyl)-acrylamide]
70 | Cc1cc(Nc2ccc(CN(C(=O)/C=C/c3ccc(C(F)(F)F)cc3)C3CCN(C4CCN(C)CC4)CC3)cc2)ccn1 [Example 116, (E)-N-(1′-Methyl-[1,4′]bipiperidinyl-4-yl)-N-[4-(2-methyl-pyridin-4-ylamino)-benzyl]-3-(4-trifluoromethyl-phenyl)-acrylamide]
46 | Cc1cc(Nc2ccc(CN(C(=O)/C=C/c3ccc(OC(F)(F)F)cc3)C3CCN(C4CCN(C)CC4)CC3)cc2)ccn1 [Example 119, (E)-N-(1′-Methyl-[1,4′]bipiperidinyl-4-yl)-N-[4-(2-methyl-pyridin-4-ylamino)-benzyl]-3-(4-trifluoromethoxy-phenyl)-acrylamide]
76 | Cc1cc(N(C)c2cccc(CN(C(=O)/C=C/c3ccc(C(F)(F)F)cc3)C3CCN(C(C)C)CC3)c2)ccn1 [Example 121, (E)-N-(1-Isopropyl-piperidin-4-yl)-N-{3-[methyl-(2-methyl-pyridin-4-yl)-amino]-benzyl}-3-(4-trifluoromethyl-phenyl)-acrylamide formate]
43 | Cc1cc(Nc2cccc(CN(C(=O)/C=C/c3ccc(C(F)(F)F)cc3)C3CCN(C(C)C)CC3)c2)ccn1 [Example 122, (E)-N-(1-Isopropyl-piperidin-4-yl)-N-[3-(2-methyl-pyridin-4-ylamino)-benzyl]-3-(4-trifluoromethyl-phenyl)-acrylamide formate]
21 | Cc1cnccc1Nc1cccc(CN(C(=O)/C=C/c2ccc(C(F)(F)F)cc2)C2CCN(C(C)C)CC2)c1 [Example 123, (E)-N-(1-Isopropyl-piperidin-4-yl)-N-[3-(3-methyl-pyridin-4-ylamino)-benzyl]-3-(4-trifluoromethyl-phenyl)-acrylamide formate]

Reference: patent publication US9637473B2, “Acrylamide derivatives as antimalarial agents” (priority 2013, dated 2017)
